# Laboratory results reported in ChEMBL document CHEMBL4190377, “Design of Aminopeptidase N Inhibitors as Anti-cancer Agents” (J Med Chem, 2018).
# Tests used:
# [1] = target: T1, Aminopeptidase N (Sus scrofa, UniProt P15145); assay: Inhibition of pig APN
# T1 sequence (P15145 whole entry): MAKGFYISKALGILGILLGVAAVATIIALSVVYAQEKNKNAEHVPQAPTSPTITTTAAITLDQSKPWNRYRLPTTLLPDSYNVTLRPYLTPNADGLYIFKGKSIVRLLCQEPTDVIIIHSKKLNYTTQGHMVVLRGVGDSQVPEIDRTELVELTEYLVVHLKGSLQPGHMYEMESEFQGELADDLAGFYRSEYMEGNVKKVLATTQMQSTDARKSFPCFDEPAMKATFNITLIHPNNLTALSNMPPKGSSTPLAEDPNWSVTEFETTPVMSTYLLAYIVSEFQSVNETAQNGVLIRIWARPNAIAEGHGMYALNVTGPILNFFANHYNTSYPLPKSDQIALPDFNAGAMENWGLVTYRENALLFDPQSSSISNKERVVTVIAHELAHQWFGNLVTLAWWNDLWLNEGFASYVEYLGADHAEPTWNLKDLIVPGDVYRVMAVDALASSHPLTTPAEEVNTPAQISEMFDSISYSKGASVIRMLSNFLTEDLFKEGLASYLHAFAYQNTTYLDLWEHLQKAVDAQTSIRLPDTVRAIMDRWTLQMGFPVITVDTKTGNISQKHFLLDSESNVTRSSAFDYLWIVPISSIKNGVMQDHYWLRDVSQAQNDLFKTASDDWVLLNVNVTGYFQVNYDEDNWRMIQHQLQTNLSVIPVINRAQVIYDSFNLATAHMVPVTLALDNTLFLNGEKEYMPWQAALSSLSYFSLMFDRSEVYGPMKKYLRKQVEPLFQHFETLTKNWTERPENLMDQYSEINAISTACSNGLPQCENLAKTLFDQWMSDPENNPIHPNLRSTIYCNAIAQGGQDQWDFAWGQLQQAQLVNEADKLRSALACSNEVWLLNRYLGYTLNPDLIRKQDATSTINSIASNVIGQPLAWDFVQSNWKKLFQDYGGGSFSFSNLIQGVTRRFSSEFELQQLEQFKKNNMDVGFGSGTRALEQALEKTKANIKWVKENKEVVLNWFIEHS
# [2] = target: T2, Aminopeptidase N (Homo sapiens, UniProt P15144); assay: Competitive inhibition of aminopeptidase-M (unknown origin)
# [3] = target: T3, Glutamyl aminopeptidase (Homo sapiens, UniProt Q07075); assay: Inhibition of APA (unknown origin) using GlubetaNA as substrate after 30 mins
# [4] = target: T1, Aminopeptidase N; assay: Inhibition of APN in porcine kidney using Ala-betaNA as substrate preincubated for 10 mins followed by substrate addition measured after 30 mins by fluorescence spectrofluorometric method
# [5] = target: T1, Aminopeptidase N; assay: Inhibition of APN in porcine kidney using Ala-p-NA as substrate
# [6] = target: T3, Glutamyl aminopeptidase; assay: Inhibition of APA (unknown origin) using GluNA as substrate
# [7] = Solubility in PBS; format: physicochemical
# [8] = target: T1, Aminopeptidase N; assay: Inhibition of APN in porcine kidney microsomes using L-leucine-p-nitroanilide as substrate preincubated for 30 mins followed by substrate addition by UV-visible spectrophotometric method
# [9] = system: HL-60; assay: Antiproliferative activity against human HL60 cells after 72 hrs by MTT assay; format: functional, cell-based; conditions: HL-60, 72 h
# [10] = target: T2, Aminopeptidase N
# Description: Inhibition of APN (unknown origin)
# [11] = target: T4, Leucine aminopeptidase (Sus scrofa, UniProt Q29571); assay: Competitive inhibition of LAP in porcine kidney microsomes
# T4 sequence (Q29571 whole entry): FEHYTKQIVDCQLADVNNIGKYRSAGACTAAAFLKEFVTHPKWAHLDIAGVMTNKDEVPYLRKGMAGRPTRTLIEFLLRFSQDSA
# [12] = target: T1, Aminopeptidase N; assay: Inhibition of APN in porcine kidney microsomes using L-leucine-p-nitroanilide as substrate preincubated for 30 mins followed by substrate addition measured after 15 mins by UV-visible spectrophotometric method
# [13] = target: 72 kDa type IV collagenase (Homo sapiens, UniProt P08253); assay: Inhibition of recombinant human MMP2 expressed in Escherichia coli preincubated for 30 mins followed by succinylated gelatin substrate addition measured after 60 mins
# [14] = system: HL-60; assay: Antiproliferative activity against human HL60 cells after 48 hrs by MTT assay; format: functional, cell-based; conditions: HL-60, 48 h
# [15] = system: SK-OV-3; assay: Antiproliferative activity against human SKOV3 cells after 48 hrs by MTT assay; format: functional, cell-based; conditions: SK-OV-3, 48 h
# [16] = target: T5, Cytosol aminopeptidase (Sus scrofa, UniProt P28839); assay: Inhibition of porcine kidney leucine aminopeptidase using LGG as substrate after 90 mins
# T5 sequence (P28839 whole entry): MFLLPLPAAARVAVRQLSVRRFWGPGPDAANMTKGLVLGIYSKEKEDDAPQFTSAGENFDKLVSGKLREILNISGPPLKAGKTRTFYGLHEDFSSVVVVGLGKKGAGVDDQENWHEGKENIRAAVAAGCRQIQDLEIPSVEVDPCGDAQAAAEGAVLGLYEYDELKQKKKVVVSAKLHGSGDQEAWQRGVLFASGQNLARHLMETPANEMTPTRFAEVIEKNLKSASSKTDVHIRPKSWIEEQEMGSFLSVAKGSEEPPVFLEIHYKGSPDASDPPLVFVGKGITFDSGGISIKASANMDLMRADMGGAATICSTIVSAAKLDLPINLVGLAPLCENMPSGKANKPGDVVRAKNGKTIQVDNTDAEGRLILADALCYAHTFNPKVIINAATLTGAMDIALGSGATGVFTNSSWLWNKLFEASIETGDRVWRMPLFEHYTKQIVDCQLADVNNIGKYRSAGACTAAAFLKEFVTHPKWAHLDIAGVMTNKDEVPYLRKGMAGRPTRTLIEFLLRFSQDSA
# [17] = target: T6, Cytosol aminopeptidase (Sus scrofa) (UniProt P28839); assay: Potency index, ratio of bestatin IC50 to compound IC50 for porcine kidney leucine aminopeptidase
# T6 sequence (whole entry): T5 sequence (P28839 whole entry)
# [18] = Selectivity ratio of IC50 for APN (unknown origin) to IC50 for porcine kidney leucine aminopeptidase
# [19] = target: T7, Aminopeptidase B (Rattus norvegicus, UniProt O09175); assay: Inhibition of APB in rat testis using ArgbetaNA as substrate
# T7 sequence (O09175 whole entry): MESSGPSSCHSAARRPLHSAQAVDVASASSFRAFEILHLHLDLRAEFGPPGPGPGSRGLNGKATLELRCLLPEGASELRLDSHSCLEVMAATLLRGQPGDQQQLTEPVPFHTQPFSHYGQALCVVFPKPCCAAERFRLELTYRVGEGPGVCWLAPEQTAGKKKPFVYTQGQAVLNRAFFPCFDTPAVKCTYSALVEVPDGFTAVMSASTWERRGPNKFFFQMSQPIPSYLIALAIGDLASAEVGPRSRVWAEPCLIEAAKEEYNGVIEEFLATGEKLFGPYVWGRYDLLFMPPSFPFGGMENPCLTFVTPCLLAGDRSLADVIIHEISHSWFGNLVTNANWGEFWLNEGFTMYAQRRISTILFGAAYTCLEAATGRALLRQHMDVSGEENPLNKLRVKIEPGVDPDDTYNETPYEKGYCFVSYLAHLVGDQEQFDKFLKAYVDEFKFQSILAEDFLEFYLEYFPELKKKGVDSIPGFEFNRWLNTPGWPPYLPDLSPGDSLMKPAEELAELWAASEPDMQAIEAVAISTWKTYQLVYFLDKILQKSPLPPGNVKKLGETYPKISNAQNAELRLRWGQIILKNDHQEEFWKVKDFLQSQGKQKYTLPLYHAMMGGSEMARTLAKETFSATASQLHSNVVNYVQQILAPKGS
# [20] = system: Mus musculus; assay: Increase in plasma vasopressin release in mouse at 100 ug administered as single dose by RIA; format: functional
# [21] = target: T8, Leukotriene A-4 hydrolase (Homo sapiens, UniProt P09960); assay: Inhibition of full-length recombinant C-terminal FLAG-tagged human leukotriene A4 hydrolase expressed in baculovirus-infected insect cells using Arg-AMC as substrate after 1 hr by fluorescence assay
# T8 sequence (P09960 whole entry): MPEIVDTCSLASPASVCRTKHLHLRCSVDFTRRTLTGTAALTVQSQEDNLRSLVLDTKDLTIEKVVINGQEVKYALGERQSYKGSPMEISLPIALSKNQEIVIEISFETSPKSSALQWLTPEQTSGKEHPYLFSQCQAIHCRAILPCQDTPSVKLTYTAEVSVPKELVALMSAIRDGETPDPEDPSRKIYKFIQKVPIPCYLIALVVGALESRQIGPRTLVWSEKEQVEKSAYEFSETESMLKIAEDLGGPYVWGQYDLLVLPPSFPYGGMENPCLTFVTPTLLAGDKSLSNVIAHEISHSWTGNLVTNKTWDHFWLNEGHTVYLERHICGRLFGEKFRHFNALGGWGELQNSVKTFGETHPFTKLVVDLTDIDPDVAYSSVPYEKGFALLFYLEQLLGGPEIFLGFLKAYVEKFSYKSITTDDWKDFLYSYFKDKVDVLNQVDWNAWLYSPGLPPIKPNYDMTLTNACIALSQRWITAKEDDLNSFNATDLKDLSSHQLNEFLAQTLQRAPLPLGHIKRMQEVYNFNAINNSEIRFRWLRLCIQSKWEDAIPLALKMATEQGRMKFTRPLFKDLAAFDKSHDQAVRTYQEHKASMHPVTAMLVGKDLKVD
# [22] = Antiproliferative activity against human ES2 cells over-expressing APN after 48 hrs by MTT assay; format: functional, cell-based; conditions: ES-2, 48 h
# [23] = system: A549; assay: Antiproliferative activity against human A549 cells over-expressing APN after 48 hrs by MTT assay; format: functional, cell-based; conditions: A549, 48 h
# [24] = system: MDA-MB-231; assay: Antiproliferative activity against human MDA-MB-231 cells after 48 hrs by MTT assay; format: functional, cell-based; conditions: MDA-MB-231, 48 h
# T2 sequence (P15144 whole entry): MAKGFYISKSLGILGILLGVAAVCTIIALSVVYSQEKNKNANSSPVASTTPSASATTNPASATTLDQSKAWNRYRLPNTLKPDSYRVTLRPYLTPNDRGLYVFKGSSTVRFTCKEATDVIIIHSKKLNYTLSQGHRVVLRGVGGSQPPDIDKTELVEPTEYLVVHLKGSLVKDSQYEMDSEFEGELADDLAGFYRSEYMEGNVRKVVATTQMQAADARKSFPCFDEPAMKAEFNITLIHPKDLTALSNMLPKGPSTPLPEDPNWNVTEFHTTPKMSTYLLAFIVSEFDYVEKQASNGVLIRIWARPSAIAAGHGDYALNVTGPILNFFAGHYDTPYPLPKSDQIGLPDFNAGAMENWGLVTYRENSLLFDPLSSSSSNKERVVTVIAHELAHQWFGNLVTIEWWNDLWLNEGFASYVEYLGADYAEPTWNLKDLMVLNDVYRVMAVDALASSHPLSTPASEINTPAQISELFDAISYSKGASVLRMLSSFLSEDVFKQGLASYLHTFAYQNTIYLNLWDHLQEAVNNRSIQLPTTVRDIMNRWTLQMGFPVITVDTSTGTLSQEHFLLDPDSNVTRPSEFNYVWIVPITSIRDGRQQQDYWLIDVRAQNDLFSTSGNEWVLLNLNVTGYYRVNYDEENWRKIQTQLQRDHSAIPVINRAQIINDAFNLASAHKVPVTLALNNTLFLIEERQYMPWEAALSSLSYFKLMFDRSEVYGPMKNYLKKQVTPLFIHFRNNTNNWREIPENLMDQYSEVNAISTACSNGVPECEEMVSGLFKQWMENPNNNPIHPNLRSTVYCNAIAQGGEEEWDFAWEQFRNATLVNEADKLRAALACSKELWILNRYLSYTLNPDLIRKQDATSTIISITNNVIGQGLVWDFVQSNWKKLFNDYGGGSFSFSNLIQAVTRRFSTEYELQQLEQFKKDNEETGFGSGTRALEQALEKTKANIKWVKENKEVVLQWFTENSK
# T3 sequence (Q07075 whole entry): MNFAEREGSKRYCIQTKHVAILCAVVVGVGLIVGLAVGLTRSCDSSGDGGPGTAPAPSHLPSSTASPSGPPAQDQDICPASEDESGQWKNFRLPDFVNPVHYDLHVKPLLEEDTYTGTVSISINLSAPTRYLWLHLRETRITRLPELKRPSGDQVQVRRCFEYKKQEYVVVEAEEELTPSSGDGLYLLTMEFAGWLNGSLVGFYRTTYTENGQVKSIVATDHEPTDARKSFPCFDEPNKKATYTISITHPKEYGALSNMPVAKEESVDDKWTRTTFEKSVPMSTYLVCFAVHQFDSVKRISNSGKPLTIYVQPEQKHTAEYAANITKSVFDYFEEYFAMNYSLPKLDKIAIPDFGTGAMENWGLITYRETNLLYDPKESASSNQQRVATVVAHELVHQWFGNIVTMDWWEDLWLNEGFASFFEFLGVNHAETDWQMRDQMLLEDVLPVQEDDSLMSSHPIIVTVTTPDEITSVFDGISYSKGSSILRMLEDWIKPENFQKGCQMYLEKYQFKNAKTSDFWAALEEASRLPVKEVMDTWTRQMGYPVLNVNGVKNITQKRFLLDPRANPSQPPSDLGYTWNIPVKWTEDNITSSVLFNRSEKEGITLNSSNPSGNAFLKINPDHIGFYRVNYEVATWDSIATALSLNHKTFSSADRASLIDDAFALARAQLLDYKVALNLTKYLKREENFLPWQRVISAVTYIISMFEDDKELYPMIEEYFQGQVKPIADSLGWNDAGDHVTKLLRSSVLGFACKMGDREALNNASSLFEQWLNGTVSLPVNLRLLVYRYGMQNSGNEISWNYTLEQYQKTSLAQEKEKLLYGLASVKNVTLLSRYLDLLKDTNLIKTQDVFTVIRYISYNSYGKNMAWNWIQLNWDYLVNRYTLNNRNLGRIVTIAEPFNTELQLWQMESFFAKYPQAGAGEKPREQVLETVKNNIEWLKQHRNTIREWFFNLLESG
# Sequence of 72 kDa type IV collagenase (P08253 whole entry): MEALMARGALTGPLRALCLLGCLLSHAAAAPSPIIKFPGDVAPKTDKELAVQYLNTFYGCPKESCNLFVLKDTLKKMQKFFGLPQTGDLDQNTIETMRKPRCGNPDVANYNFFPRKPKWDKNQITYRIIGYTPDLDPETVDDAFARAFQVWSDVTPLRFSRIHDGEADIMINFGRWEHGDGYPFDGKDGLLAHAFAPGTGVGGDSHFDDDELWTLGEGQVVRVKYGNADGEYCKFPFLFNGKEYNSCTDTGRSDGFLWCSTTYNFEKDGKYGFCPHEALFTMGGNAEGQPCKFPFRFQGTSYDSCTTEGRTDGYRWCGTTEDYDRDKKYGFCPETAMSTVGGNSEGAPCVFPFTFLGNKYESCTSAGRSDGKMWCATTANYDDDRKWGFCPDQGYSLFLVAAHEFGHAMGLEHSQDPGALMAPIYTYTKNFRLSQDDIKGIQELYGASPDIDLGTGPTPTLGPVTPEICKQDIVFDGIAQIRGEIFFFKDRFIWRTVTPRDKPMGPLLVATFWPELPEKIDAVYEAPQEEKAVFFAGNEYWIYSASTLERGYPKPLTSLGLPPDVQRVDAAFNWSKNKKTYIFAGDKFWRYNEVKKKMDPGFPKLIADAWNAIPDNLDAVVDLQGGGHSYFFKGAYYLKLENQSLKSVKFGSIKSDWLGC
compound,measurement,setting,value
N#Cc1cc(Cc2ccc3c(ccc4ccccc43)c2C#N)cc2c1ccc1ccccc12,Ki,[1],2900 nM
CCCCC[C@H](CC(=O)NO)C(=O)N[C@H](C(=O)N1CCC[C@H]1CO)C(C)C [ACTINONIN],IC50,[2],400 nM
same,Ki,[2],170 nM
CC[C@H](C)[C@H](NC(=O)C(S)C(N)CCC(=O)O)C(=O)N[C@@H](CC(=O)O)C(=O)O (stereo partly drawn),Ki,[3],13 nM
same,Ki,[4],120 nM
C[C@@](Cc1ccccc1)(NC(=O)[C@H](Cc1ccccc1)CP(=O)(O)C(N)Cc1ccccc1)C(=O)O (stereo partly drawn),Ki,[5],1.5 nM
same,Ki,[6],40000 nM
CC(C)C[C@H](NC(=O)[C@@H](O)[C@H](N)Cc1ccccc1)C(=O)O [UBENIMEX],solubility,[7],35.7 mM
Cc1ccc(NC(=O)CN2C(=O)CC[C@H](NC(=O)C(N)Cc3ccccc3)C2=O)c(C)c1 (stereo partly drawn),IC50,[8],5000 nM
same,IC50,[9],1970 nM
CC(N)B1OC(C)(C)C(C)(C)O1 (stereo not drawn),IC50,[10],40 nM
CC(C)C[C@@H](N)CS,Ki,[11],22 nM
CC(C)C[C@@H](NC(=O)[C@H](Cc1ccccc1)NC(=O)[C@@H](O)CN)C(=O)O,IC50,[12],12200 nM
same,IC50,[13],203000 nM
same,IC50,[14],170 nM
same,IC50,[15],380 nM
CC(C)C[C@@H](NC(=O)[C@H](Cc1ccc(O)cc1)NC(=O)[C@@H](O)CN)C(=O)O,IC50,[12],2510 nM
CC(C)C[C@H](C(=O)N[C@H](C(=O)OC1CCCC1)c1ccccc1)[C@H](O)C(=O)NO,IC50,[16],100 nM
same,Ratio IC50,[17],300
same,Ratio IC50,[18],2
same,IC50,[10],220 nM
CSCCC(N)CS (stereo not drawn),Ki,[3],17200 nM
same,Ki,[19],1000 nM
same,Activity,[20],>220%
Cc1ccc(C(=O)NN/C(=N/S(=O)(=O)c2ccc(-n3nc(C(F)(F)F)cc3-c3cccs3)cc2)N2CCCC2)cc1,Ki,[1],1950 nM
CC(C)CC(N)B1OC(C)(C)C(C)(C)O1 (stereo not drawn),IC50,[10],25 nM
CC(N)P(=O)(O)C[C@@H](Cc1ccccc1)C(=O)N[C@@](C)(Cc1ccccc1)C(=O)O (stereo partly drawn),Ki,[5],0.6 nM
same,Ki,[6],130 nM
CC(C)C[C@H](C(=O)N[C@H](C(=O)O)c1ccccc1)[C@H](O)C(=O)NO,IC50,[21],8 nM
same,IC50,[16],30 nM
CC(C)CC(NC(=O)C(O)C(N)Cc1ccccc1)C(=O)NC(CO)C(=O)NCc1ccccc1 (stereo not drawn),solubility,[7],85.2 mM
same,IC50,[8],7200 nM
same,IC50,[22],12600 nM
same,IC50,[23],36000 nM
same,IC50,[24],260000 nM
C(=C1/c2ccccc2-c2c1ccc1ccccc21)/c1cc2c3c(cccc3c1)-c1ccccc1-2,Ki,[1],1630 nM
NC1COc2ccccc2CC1=O (stereo not drawn),Ki,[1],1000 nM
CC1(C)OB(C(N)Cc2ccccc2)OC1(C)C (stereo not drawn),IC50,[10],20 nM
